A word on the melting point: it is the temperature, or range, at which the solid turns liquid.

On to `Cc1ccccc1NC(=O)Nc1ccc(CC(=O)N[C@@H](C)COc2ccc(C(=O)O)cc2)cc1` [Compound 273, (S)-4-[2-[4-[N′-(2-methylphenyl)ureido]phenylacetylamino]-1-propoxy]benzoic acid], for which the melting point fell in the range of 262 to 265 °C.

`COc1cc(CC(=O)N2CC[C@@H](Oc3ccc(C(=O)O)cc3)C2)ccc1NC(=O)Nc1ccccc1Br` [Compound 187, 4-[1-[4-[N′-(2-bromophenyl)ureido]-3-methoxyphenylacetyl]-(3R)-pyrrolidinyloxy]benzoic acid] came in with a melting point of 175 to 177 °C.

With `Cc1cc(CC(=O)N2CCC[C@H]2COc2ccc(C(=O)O)cc2)ccc1NC(=O)Nc1ccccc1Cl` [Compound 81, 4-[1-[4-[N′-(2-chlorophenyl)ureido]-3-methylphenylacetyl]-(2S)-pyrrolidinyl]methoxybenzoic acid], the melting point was in the range of 122 to 124 °C.

`COc1cc(CC(=O)N2CCCC2C#Cc2ccc(C(=O)O)cc2)ccc1NC(=O)Nc1ccccc1F` (stereo not drawn) [Compound 33, 4-[2-[1-[4-[N′-(2-fluorophenyl)ureido)-3-methoxyphenylacetyl]-2-pyrrolidinyl]ethynyl]benzoic acid]: the melting point was 152 to 155 °C (dec.).

With `COc1cc(CC(=O)N(C)CCN(C)c2ccc(C(=O)O)cc2)ccc1NC(=O)Nc1ccccc1C` [Compound 286, 4-[[2-[3-methoxy-4-[N′-(2-methylphenyl)ureido]phenylacetyl]methylamino]ethyl]methylamino benzoic acid], the melting point was 125 to 130 °C.

On to `COc1cc(CC(=O)N(C)CCOc2ccc(C(=O)O)cc2N2CCCCC2)ccc1NC(=O)Nc1ccccc1F` [Compound 289, 3-(1-piperidinyl)-4-[[2-[3-methoxy-4-[N′-(2-fluorophenyl)ureido]phenylacetyl]methylamino]ethoxy]benzoic acid], for which the melting point was 125 to 130 °C.

Consider `COc1cc(CC(=O)N(C)CCOc2ccc(C(=O)O)cc2NC(C)C)ccc1NC(=O)Nc1ccccc1F` [Compound 279, 3-isopropylamino-4-[[2-[3-methoxy-4-[N′-(2-fluorophenyl)ureido]phenylacetyl]methylamino]ethoxy]benzoic acid], for which the melting point fell in the range of 195 to 200 °C.

`Cc1cc(CC(=O)N2C[C@@H](F)C[C@H]2COc2ccc(C(=O)O)cc2)ccc1NC(=O)Nc1ccccc1F` [Compound 74, 4-[(4S)-fluoro-1-[4-[N′-(2-fluorophenyl)ureido]-3-methylphenylacetyl]-(2S)-pyrrolidinylmethoxy]benzoic acid] showed a melting point of 137 to 143 °C.

In the case of `COc1cc(CC(=O)N2CCC[C@H]2COc2ncc(C(=O)O)cc2Cl)ccc1NC(=O)Nc1ccccc1C` (stereo in doubt) [Compound 47, 3-chloro-2-[[1-[3-methoxy-4-[N′-(2-methylphenyl)ureido]phenylacetyl]-2-pyrrolidinyl]methoxy]pyridine-5-carboxylic acid], the melting point is 122 to 125 °C.

For the compound `COc1cc(CC(=O)N(C)CCOc2ccc(C(=O)O)cc2N(C)C(C)C)ccc1NC(=O)Nc1ccccc1C` [Compound 288, 3-(N-isopropyl-N-methylamino)-4-[[2-[3-methoxy-4-[N′-(2-methylphenyl)ureido]phenylacetyl]methylamino]ethoxy]benzoic acid], the melting point was in the range of 130 to 135 °C.

Compound `COc1cc(CC(=O)N2C[C@H](O)C[C@H]2COc2ccc(C(=O)O)cc2)ccc1NC(=O)Nc1ccccc1C` [Compound 110, 4-[(4R)-hydroxy-1-[3-methoxy-4-[N′-(2-methylphenyl)ureido]phenylacetyl]-(2S)-pyrrolidinylmethoxy]benzoic acid] came in with a melting point of 178 to 182 °C.

As to `COc1cc(CC(=O)N2CSC[C@H]2COc2ccc(C(=O)O)cc2)ccc1NC(=O)Nc1ccccc1Br` (stereo in doubt) [Compound 170, 4-[3-[4-[N′-(2-bromophenyl)ureido]-3-methoxyphenylacetyl]-4-thiazolidinyl]methoxybenzoic acid], the melting point lay in the range of 125 to 133 °C.
